{"source": "patent US20200352947A1", "about": "“USE OF SEROTONERGIC DRUGS TO TREAT VIRUS-INDUCED THROMBOCYTOPENIA” (NATIONAL UNIVERSITY OF SINGAPORE, priority 2017, published 2020)", "key": {"DENV2-infected Sash mice": {"system": "DENV2-infected Sash mice", "test": "Exogenous serotonin in DENV2-infected mast cell-deficient (Sash) mice", "assay_type": "in vivo", "settings": "serotonin 150 mg/kg daily", "experimental": "(A) Sash mice were infected with DENV2 and treated with 150 mg/kg of serotonin or vehicle daily. Blood was taken for analysis 3 days post-infection. […] (C) Representative eosin and methylene blue staining of peripheral blood smears day 3 post-infection. Some individual platelets are indicated by arrows. Platelet aggregates are surrounded by a dashed line. Scale bar=25 μm. Means are presented with error bars representing the SEM. P values were determined by Student's unpaired t test; ns: non-significant, **P<0.01, ***P<0.001."}, "human platelets": {"system": "human platelets", "test": "Platelet activation (CD41/CD62P flow cytometry) in stimulated human whole blood", "assay_type": "cell-based", "settings": "15 min stimulation; CD41/CD62P flow cytometry; n=4", "experimental": "(A) Whole blood from healthy human volunteers was isolated and stimulated with DENV2, serotonin, or DENV2+serotonin for 15 min. Cells were then fixed and stained for platelet markers CD41 and CD62P and analyzed by flow cytometry. DENV raised the activation levels of platelets. […] (B) Human whole blood was stimulated with DENV2, mast cells (MCs) or DENV2+MCs in the presence of vehicle or ketanserin (100 nM or 500 nM) for 15 min prior to assessment of platelet activation. […] Mean values are presented and error bars represent the SEM. P values were determined by one-way ANOVA; *P<0.05, ** P<0.01, ***P<0.001, ****P<0.0001, ns: non-significant.\nAdditionally, products from DENV-stimulated human mast cells promoted platelet activation, dependent on platelet 5HT2A receptor, since this effect was abolished by ketanserin (FIG. 9B). […] Furthermore, ketanserin is effective in reversing DENV-induced human platelet activation."}, "DENV2-infected WT mice": {"system": "DENV2-infected WT mice", "test": "Exogenous serotonin in DENV2-infected and uninfected WT mice", "assay_type": "in vivo", "settings": "serotonin 150 mg/kg daily", "experimental": "(A) WT mice were infected with DENV2 (1×10^6 pfu i.p.) and treated with 150 mg/kg of serotonin or vehicle daily. […] (B) Blood of DENV infected mice treated with serotonin or vehicle was isolated and stained for platelet marker CD41 and activation marker CD62P and analyzed by flow cytometry. […] (C) Representative peripheral blood smears, day 3 post-infection, show platelet aggregation (dashed lines), which was more visually apparent following exogenous serotonin treatment compared to DENV infection. Some individual platelets are indicated by arrows. Scale bar=25 μm. Mean values are presented and error bars represent the SEM. P values were determined by Student's unpaired t test; *P<0.05, ns: non-significant.\nWT mice were infected with DENV and administered exogenous serotonin to determine if there was an increase in platelet activation mediated by serotonin and if this would worsen thrombocytopenia in vivo."}, "DENV2-infected mice [1]": {"system": "DENV2-infected mice", "test": "Platelet counts (thrombocytopenia) in DENV2-infected WT mice", "assay_type": "in vivo", "settings": "mice, 10^6 pfu DENV2 IP; WAY-100135 3 mg/kg, ketanserin 8 mg/kg or sarpogrelate 3 mg/kg; 24 hours post-infection; n=5", "experimental": "Platelet counts of DENV2 infected mice. Mice were infected via intraperitoneal route (IP) with 10^6 plaque forming units (pfu) and were given either vehicle (1% DMSO) or ketanserin 8 mg/kg IP. Blood was taken via cheek bleed 24 hours post-infection and platelet counts were measured using an automated hematology analyzer. DENV2 infection induces thrombocytopenia, but ketanserin treatment is able to prevent thrombocytopenia (n=5). Mean values are presented and error bars represent the SEM. P values were determined by Student's unpaired t test; ***P<0.001, ****P<0.0001.\nPlatelet counts of DENV2 infected mice. Mice were infected IP with 10^6 pfu of DENV2 and were given either vehicle, the 5HT1A antagonist WAY-100135, or either of the 5HT2A antagonists, ketanserin and sarpogrelate. Blood was taken via cheek bleed 24 hours post-infection and platelet counts were measured using an automated hematology analyzer. DENV2 infection induced thrombocytopenia that was able to be prevented through administration of serotonin receptor antagonists (n=5). Mean values are presented and error bars represent the SEM. P values were determined by one-way ANOVA; ***p<0.001, ****P<0.0001.\nWT mice were infected via intraperitoneal route (IP) with 10^6 plaque forming units (pfu) of DENV2 and were given either vehicle (1% DMSO) or ketanserin (8 mg/kg) IP. Blood was taken via cheek bleed 24 hours post-infection and platelet counts were measured using an automated hematology analyzer.\nOne limitation of the experimental protocol in Examples 10 and 11 is that the vehicle used to deliver ketanserin in mice, DMSO, can itself interfere with platelet aggregation [Rosenblum, W. I. & El-Sabban. F. Stroke 13, 35-39 (1982)]. This difference can be observed by comparing the severity of thrombocytopenia in dengue-infected mice between FIGS. 1 and 10. Accordingly, newer serotonin receptor antagonists that are more soluble in saline were tested, to determine whether a similar effect is seen even without the confounding effects of DMSO. Mice were infected IP with 10^6 pfu of DENV2 and were given either vehicle, the 5HT1A antagonist WAY-100135 (3 mg/kg), or one of the 5HT2A antagonists ketanserin (8 mg/kg) or sarpogrelate (3 mg/kg). Blood was taken via cheek bleed 24 hours post-infection and platelet counts were measured using an automated hematology analyzer."}, "DENV2-infected mice [2]": {"system": "DENV2-infected mice", "test": "Platelet counts and platelet activation in DENV2-infected mice pretreated with fluoxetine", "assay_type": "in vivo", "settings": "fluoxetine 20 mg/kg/day in drinking water for 2 weeks, then 10^6 pfu DENV2 IP; 24 and 72 hours; n=5", "experimental": "Mice were administered fluoxetine (20 mg/kg/day) or vehicle via drinking water for 2 weeks. Mice were then infected with 10^6 pfu of DENV2 intraperitoneally. At 24 and 72 hours, blood was collected and platelet counts were measured. The reduction in platelet counts and increased platelet activation induced by DENV was prevented by fluoxetine treatment (n=5). Mean values are presented and error bars represent the SEM. P values were determined by one-way ANOVA; *P<0.05, **P<0.01, ***P<0.001, ****P<0.0001.\nFluoxetine, an SSRI, prevents the uptake of serotonin into platelets. Activation of platelets by DENV (FIG. 3), will result in the release of stored serotonin, which can act in a positive feedback loop. Mice were treated with fluoxetine (20 mg/kg/day) or vehicle in drinking water for 2 weeks and infected with 10^6 pfu of DENV IP. At 24 and 72 hours, blood was collected and platelet counts were measured. The reduction in platelet counts and increased platelet activation induced by DENV was inhibited by fluoxetine treatment (FIG. 15)."}}}
{"smiles": "NCCc1c[nH]c2ccc(O)cc12", "note": "[serotonin]", "values": [{"measurement": "circulating platelet counts", "setting": "DENV2-infected Sash mice; 3 days post-infection", "result": "significantly reduced circulating platelet counts compared to vehicle (mock)-treated animals"}, {"measurement": "platelet activation", "setting": "DENV2-infected Sash mice; 3 days post-infection, n=5-8", "result": "increased platelet activation in infected mice compared to vehicle treated controls"}, {"measurement": "platelet aggregates in peripheral blood films", "setting": "DENV2-infected Sash mice; day 3 post-infection", "result": "increased platelet aggregates"}, {"measurement": "platelet activation in human whole blood stimulated with DENV2+serotonin", "setting": "human platelets", "result": "significantly enhanced platelet activation over control and DENV groups"}, {"measurement": "platelet aggregates in peripheral blood films", "setting": "DENV2-infected WT mice; DENV2-infected WT mice, day 3 post-infection", "result": "platelet aggregates increased"}, {"measurement": "platelet activation (CD41/CD62P) in infected mice", "setting": "DENV2-infected WT mice; DENV2-infected WT mice, n=6-12", "result": "further increased"}, {"measurement": "platelet counts (thrombocytopenia) in infected mice", "setting": "DENV2-infected WT mice; WT mice, DENV2 1×10^6 pfu i.p., 3 days post-infection", "result": "worsened thrombocytopenia during DENV infection compared to vehicle-treated mice"}, {"measurement": "platelet activation (CD41/CD62P) in uninfected mice", "setting": "DENV2-infected WT mice; uninfected WT mice", "result": "did not result in platelet activation in uninfected mice"}, {"measurement": "platelet counts in uninfected mice", "setting": "DENV2-infected WT mice; uninfected WT mice", "result": "did not affect platelet counts in uninfected WT mice"}]}
{"smiles": "COc1cccc(CCc2ccccc2OCC(CN(C)C)OC(=O)CCC(=O)O)c1", "note": "(stereo not shown) [sarpogrelate, 4-[1-(dimethylamino)-3-[2-[2-(3-methoxyphenyl)ethyl]phenoxy]propan-2-yl]oxy-4-oxobutanoic acid]", "values": [{"measurement": "platelet counts (DENV2-induced thrombocytopenia)", "setting": "DENV2-infected mice [1]", "result": "prevented"}]}
{"smiles": "CNCCC(Oc1ccc(C(F)(F)F)cc1)c1ccccc1", "note": "(stereo not shown) [fluoxetine]", "values": [{"measurement": "increased platelet activation induced by DENV", "setting": "DENV2-infected mice [2]", "result": "inhibited"}, {"measurement": "reduction in platelet counts induced by DENV", "setting": "DENV2-infected mice [2]", "result": "inhibited"}]}
{"smiles": "COc1ccccc1N1CCN(C[C@@H](C(=O)NC(C)(C)C)c2ccccc2)CC1", "note": "[WAY-100135, (S)-N-tert-butyl-3-(4-(2-methoxyphenyl)-piperazin-1-yl)-2-phenylpropanamide]", "values": [{"measurement": "platelet counts (DENV2-induced thrombocytopenia)", "setting": "DENV2-infected mice [1]", "result": "prevented"}]}
